Data set [1] deals with AR+LNCaP androgen-sensitive human prostate cancer cell line. The data set is described as follows: MTT in vitro cytotoxicity assay, 24 h incubation. The data set is classed as cell-based. Particulars: for IC50: Homo sapiens, MTT; for Selective Index Wi38/Lncap: ratio of IC50 values. The method, then: (§1) The antitumor properties of pyrazolylmethylene-2-thioxoimidazolidin-4-one derivatives (3a–p) against androgen-sensitive (AR^+LNCaP; ATCC CRL-1740, Accession: CVCL_0395) and androgen-insensitive (AR^-PC-3; ATCC CRL-1435, Accession: CVCL_D5ZS) human prostate cancer cell lines in addition to normal human lung fibroblast cell line (Wi38, Accession: CVCL_2759) were evaluated by MTT assay. AR^+LNCaP, AR^-PC-3, and Wi38 cell lines were purchased frozen in liquid nitrogen from Egyptian Company for Production of Vaccines, Sera and Drugs, Cairo, Egypt (VACSERA). Tumor cell lines were stored as monolayer cultures in DMEM supplemented with 10% FBS and 1% penicillin–streptomycin. MTT assay was carried out as described previously in the literature. In brief, AR^+LNCaP, AR^-PC-3, and Wi38 cells were cultured into 96-well plates containing 100 µL of culture medium per each well. […] A control containing only culture medium was also applied. The assay was performed in triplicate. The cells were incubated overnight to grow at 37 °C in 5% CO2. After removing the growth medium, 100 µL of MTT (0.4 mg/mL of PBS) were added. After 24 h of incubation, the supernatant was removed and 100 µL of DMSO (Sigma Aldrich, Germany) were then added to each sample. Absorbance at 550 nm was measured. The formula (Reading of extract/Reading of negative control) × 100 was applied to calculate the viability percentage. The IC50 value of test compounds (3a–p) was also determined using CPE measurements of normal Wi38 cells (normal human lung fibroblast cells). The MTT assay was repeated with the test compounds (3i, 3k, 3o, 3j, 3p, and 3m) using the three cell types which were stimulated by 1 nM DHT after 48 h of incubation. IC50 values were estimated using Graph Pad Prism computer software (International Scientific Community, San Diego, CA, USA) from linear regression analysis of the concentration–response curves plotted for each tested compound [36].
(§2) In vitro cytotoxicity assay was performed to elucidate the antitumor properties of the synthesized derivatives of pyrazolylmethylene-2-thioxoimidazolidin-4-one. […] The cytotoxicity assay was performed using MTT assay as described in the Materials and Methods Section 2.4.1. The test compounds were dissolved in DMSO as stock solutions (<0.5% (v/v)) and stored in the dark at −20 °C. The human prostate cancer cells and normal human lung fibroblast cells were subjected to variable doses of the compounds for 24 h.

Data set [2] has as its system AR-PC-3 androgen-insensitive human prostate cancer cell line. In words: MTT in vitro cytotoxicity assay, 24 h incubation. The settings on record: for IC50: Homo sapiens, MTT; for Selective Index Wi38/PC-3: ratio of IC50 values. The data set is classed as cell-based. The method, then:
as §1, §2

Data set [3] concerns Wi38 normal human lung fibroblast cell line. In words: MTT in vitro cytotoxicity assay, 24 h incubation. The data set is classed as cell-based. Particulars: WI-38. The method, then:
as §1, §2

Data set [4] relates to AR+LNCaP androgen-sensitive human prostate cancer cell line. In words: MTT cytotoxicity assay in presence of 1 nM DHT, 48 h incubation. The settings on record: for IC50: Homo sapiens; for Selectivity AR-/AR+: IC50 PC-3 / IC50 LNCaP. The data set is classed as cell-based. The method, then:
as §1
(§3) The assay was performed in the presence of dihydrotestosterone (1 nM DHT) for 48 h of incubation as previously described. DHT is a potent inducer of androgens that enhances prostate cancer disease progression.

Data set [5] has as its system AR-PC-3 androgen-insensitive human prostate cancer cell line. The data set is described as above. The data set is classed as cell-based. The method, then:
as §1, §3

Data set [6] concerns Wi38 normal human lung fibroblast cell line. The data set is described as above. It is filed as cell-based. The settings on record: WI-38, read-out: IC50 Wi38. The method, then: as §1, §3
The test system of data set [7] is active human caspase-3 in AR+LNCaP cells. The data set is described as follows: Detection of active Caspase 3 in AR+LNCaP cell lysates (Invitrogen Elisa kit). The data set is classed as cell-based. The arrangement: Caspase 3 Conc. (Average): unit not given here. The settings on record: for active Caspase 3 fold change compared to untreated cells / induction of active caspase 3 as a percentage of the reference drug Enzalutamide: IC50 concentration; for active Caspase 3 fold change compared to untreated cells: 1 nM DHT, AR+LNCaP lysate; for induction of active caspase 3 as a percentage of the reference drug Enzalutamide: AR+LNCaP; for Caspase 3 fld / Caspase 3: LNCaP, supplement lab report; for Caspase 3 fld: fold of control; for Caspase 3 Conc. (Average): supplement ELISA read-out, average of two wells. The method, then:
Untreated AR^+LNCaP and Enzalutamide-treated AR^+LNCaP were used as negative and positive controls, respectively. AR^+LNCaP cells were cultured in 96-well plates at a cell density of 1 × 10^4 cells/well. Cells were then lysed with 50 µL lysis buffer/well supplemented with the Invitrogen Elisa kit for detection of active human caspase-3 (Invitrogen, Camarillo, CA, USA). Plates were frozen at −80 °C for 30 min and then thawed. The lysate was mixed with 2 Z-DEVD-R110 substrate and incubated at room temperature for 30 min. A fluorescence microplate reader (Tecan, Mainz-Kastel, Germany), was used to measure fluorescence via excitation at 496 nm and emission detection at 520 nm. Values were normalized with total protein content. Active caspase 3 accumulation was determined based on standard dilution series of Human Caspase-3 samples provided with the kit. […]
Background: An ELISA detects its analyte on a solid surface through an enzyme-linked reagent.

With `Cc1ccc(-c2nn(-c3ccc(F)cc3)cc2C=C2NC(=S)NC2=O)cc1` [Compound 3m, 5-((1-(4-Fluorophenyl)-3-(p-tolyl)-1H-pyrazol-4-yl)methylene)-2-thioxoimidazolidin-4-one], the melting point (as a rule, the temperature, or range, at which the solid turns liquid) lay within 167 to 169 °C. In data set [1], the IC50 (commonly the point on the concentration scale where inhibition reaches its midpoint) came out at 12.97 ± 0.06 µM and the “Selective Index Wi38/Lncap” value stood at 2.4. In addition, in data set [2], the half-maximal inhibitory concentration (IC50) is 22.5 ± 0.46 µM and the “Selective Index Wi38/PC-3” value is listed as 1.3. The 50% inhibitory concentration (IC50) in data set [3] was found to be 30.54 ± 0.08 µM. Besides, in data set [4], the concentration for half-maximal inhibition (IC50) was determined as 10.5 ± 0.11 µM and the “Selectivity AR-/AR+” value turned out to be 1.3. In addition, the IC50 in data set [5] amounted to 13.1 ± 0.14 µM. Moreover, the CC50 in data set [6] stood at 23.33 ± 0.19 µM. Moreover, in data set [7], the “active Caspase 3 fold change compared to untreated cells” value (shortened to “active Caspase 3 fold change”) amounted to 3.2 fold, the “induction of active caspase 3 as a percentage of the reference drug Enzalutamide” value came out at 48.6%, the “Caspase 3 fld” value came out at 3.176 and the “Caspase 3” value is 244.3 pg/mL. Moreover, in data set [7], the “Caspase 3 Conc. (Average)” value is 244.3.
Consider `O=C1NC(=S)NC1=Cc1cn(-c2ccc(C(F)(F)F)cc2)nc1-c1ccc(F)cc1` [Compound 3o, 5-((3-(4-Fluorophenyl)-1-(4-(trifluoromethyl)phenyl)-1H-pyrazol-4-yl)methylene)-2-thioxoimidazolidin-4-one], for which the melting point was in the range of 205 to 207 °C. Also, in data set [1], the half-inhibitory concentration (IC50) stood at 12.66 ± 0.11 µM and the “Selective Index Wi38/Lncap” value came to 2.0. Besides, in data set [2], 21.08 ± 0.1 µM corresponded to half-maximal inhibition (IC50) and the “Selective Index Wi38/PC-3” value was 1.2. The same compound registered an IC50 in data set [3] of 25.08 ± 0.08 µM. Also, in data set [4], the IC50 is 11.75 ± 0.07 µM and the “Selectivity AR-/AR+” value stood at 1.4. In data set [5], the IC50 worked out at 16.4 ± 0.17 µM. In data set [6], the CC50 is 22.35 ± 0.13 µM. In data set [7], the “active Caspase 3 fold change” value is 3.5 fold, the “induction of active caspase 3 as a percentage of the reference drug Enzalutamide” value turned out to be 53.4%, the “Caspase 3 fld” value turned out to be 3.490 and the “Caspase 3” value turned out to be 268.4 pg/mL. Besides, the “Caspase 3 Conc. (Average)” value in data set [7] stood at 268.4.
`O=C1NC(=S)NC1=Cc1cn(-c2ccc(C(F)(F)F)cc2)nc1-c1ccc(C(F)(F)F)cc1` [Compound 3p, 5-((1,3-Bis(4-(trifluoromethyl)phenyl)-1H-pyrazol-4-yl)methylene)-2-thioxoimidazolidin-4-one] returned a melting point of 223 to 225 °C. Moreover, in data set [1], half-maximal inhibition (IC50) was put at 12.11 ± 0.08 µM and the “Selective Index Wi38/Lncap” value was determined as 2.1. Further, in data set [2], inhibition was half-maximal at 23.2 ± 0.12 µM (IC50) and the “Selective Index Wi38/PC-3” value is on record as 1.0. For the same compound, in data set [3], the IC50 was found to be 25.35 ± 0.12 µM. Also, in data set [4], the IC50 worked out at 5.91 ± 0.13 µM and the “Selectivity AR-/AR+” value was determined as 2.7. For the same compound, in data set [5], the concentration for half-maximal inhibition (IC50) was 15.2 ± 0.25 µM. Also, the CC50 in data set [6] stood at 20.18 ± 0.14 µM. Also, in data set [7], the “active Caspase 3 fold change” value is 4.4 fold, the “induction of active caspase 3 as a percentage of the reference drug Enzalutamide” value was found to be 66.6%, the “Caspase 3 fld” value was 4.351 and the “Caspase 3” value amounted to 334.6 pg/mL. Further, the “Caspase 3 Conc. (Average)” value in data set [7] was 334.6.
